# Test results: patent US9353062B2, “Substituted quinolines as bruton's tyrosine kinases inhibitors” (HangzhouDeRenYuCheng Biotechnology Ltd, priority 2012, dated 2016)
# Assays:
# Btk [1] = target: T1, Btk (Homo sapiens (Human), UniProt Q06187); experiment: Btk kinase assay, method A (33P-ATP radiometric); assay type: biochemical; details: 10 μM ATP
# Experimental: (§1) An in vitro assay which determines the ability of a test compound to inhibit Btk.
# a) Method A conducts the kinase assay with the following condition and procedure: Reagent: Base Reaction Buffer; 20 mM Hepes (pH 7.5), 10 mM MgCl2, 1 mM EGTA, 0.02% Brij35, 0.02 mg/ml BSA, 0.1 mM Na3VO4, 2 mM DTT, 1% DMSO.
# 1. Prepare indicated substrate in freshly prepared Base Reaction Buffer.
# 2. Deliver any required cofactors to the substrate solution obtained in step 1.
# 3. Deliver indicated kinase into the substrate solution prepared in step 2 and gently mix.
# 4. Deliver compounds in DMSO into the kinase reaction mixture prepared in step 3.
# 5. Deliver ^33P-ATP (specific activity 0.01 μCi/μl final) into the reaction mixture prepared in step 4 to initiate the reaction.
# 6. Incubate kinase reaction for 120 min. at room temperature.
# 7. Reactions are spotted onto P81 ion exchange paper (Whatman #3698-915).
# 8. Washing filters extensively in 0.75% Phosphoric acid.
# Compounds were tested in 10-dose IC50 mode with 3-fold serial dilution starting at 10 μM; Reactions were carried out at 10 μM ATP.
# Btk [2] = target: T1, Btk; experiment: Btk kinase assay, method B (Kinase-Glo Plus luminescence); assay type: biochemical; details: 10 μM ATP
# Experimental: as §1
# b) Method B conducts the kinase assay with the following condition and procedure: The assay was performed using Kinase-Glo Plus luminescence kinase assay kit (Promega). It measures kinase activity by quantitating the amount of ATP remaining in solution following a kinase reaction. The luminescent signal from the assay is correlated with the amount of ATP present and is inversely correlated with the amount of kinase activity.
# The compounds were diluted in 10% DMSO and 5 μl of the dilution was added to a 50 μl reaction so that the final concentration of DMSO is 1% in all of reactions. All of the enzymatic reactions were conducted at 30° C. for 40 minutes. […] After the enzymatic reaction, 50 μl of Kinase-Glo Plus Luminescence kinase assay solution (Promega) was added to each reaction and incubate the plate for 5 minutes at room temperature. Luminescence signal was measured using a BioTek Synergy 2 microplate reader. […] The luminescence data were analyzed using the computer software, Graphpad Prism. The difference between luminescence intensities in the absence of Btk (Lut) and in the presence of Btk (Luc) was defined as 100% activity (Lut−Luc). […] The IC50 value was determined by the concentration causing a half-maximal percent activity. […]
# [3] = test system: BTK signaling in Ramos cells; experiment: Btk Ramos Cellular Assay (phosphorylation of BTK substrate PLCγ2); assay type: cell-based; details: 1 hour compound incubation, anti-human IgM stimulation, PLCγ2 phosphorylation blot, read-out: inhibition of BTK signaling in Ramos cells, IC50
# Experimental: Ramos cells were grown in suspension in T225 flasks, spun down, resuspended in 50 mL serum-free media and incubated for 1 hour. Compound was added to Ramos cells in serum free media to a final concentration of 1, 0.1, 0.01, or 0.001 μM. Ramos cells were incubated with compound for 1 hour, washed again and resuspended in 100 μL serum-free media. Cells were then stimulated with 1 μg of goat F(ab′)2 Anti-Human IgM and incubated on ice for 10 minutes to activate B cell receptor signaling pathways. After 10 minutes, the cells were washed once with PBS and then lysed on ice with Invitrogen Cell Extraction buffer. Sixteen μg total protein from lysates was loaded on gels and blots were probed for phosphorylation of the BTK substrate PLCγ2.
# T1 sequence (Q06187 whole entry, species assumed): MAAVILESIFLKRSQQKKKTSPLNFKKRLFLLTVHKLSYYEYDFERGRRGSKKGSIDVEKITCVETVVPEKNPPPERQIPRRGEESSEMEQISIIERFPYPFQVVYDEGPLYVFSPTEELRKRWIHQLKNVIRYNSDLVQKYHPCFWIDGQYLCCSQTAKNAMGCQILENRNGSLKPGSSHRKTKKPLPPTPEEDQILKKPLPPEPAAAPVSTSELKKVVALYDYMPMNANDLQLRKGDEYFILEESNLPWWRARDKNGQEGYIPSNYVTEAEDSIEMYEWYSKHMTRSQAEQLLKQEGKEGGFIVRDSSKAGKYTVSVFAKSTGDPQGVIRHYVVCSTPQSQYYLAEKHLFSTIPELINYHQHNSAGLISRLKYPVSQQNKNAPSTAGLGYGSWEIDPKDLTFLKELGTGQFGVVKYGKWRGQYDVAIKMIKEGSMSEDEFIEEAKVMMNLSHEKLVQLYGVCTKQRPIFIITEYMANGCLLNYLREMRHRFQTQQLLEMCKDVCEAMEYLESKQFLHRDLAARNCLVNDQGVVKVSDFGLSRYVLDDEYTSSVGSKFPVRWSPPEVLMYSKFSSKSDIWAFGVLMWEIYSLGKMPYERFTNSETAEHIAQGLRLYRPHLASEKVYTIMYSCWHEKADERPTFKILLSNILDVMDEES
IC50 (Btk [1]),IC50 (Btk [2]),IC50 [3],Compound
0.64 nM,< 100 nM,< 100 nM,"CCOc1cc2ncc(C#N)c(Nc3ccc(Oc4ccccc4)cc3)c2cc1NC(=O)/C=C/CN(C)C [Example 1, (E)-N-(3-cyano-7-ethoxy-4-((4-phenoxyphenyl)amino)quinolin-6-yl)-4-(dimethylamino)but-2-enamide]"
–,< 100 nM,–,"CN(C)C/C=C/C(=O)Nc1ccc2ncc(C#N)c(Nc3ccc(Oc4ccccc4)cc3)c2c1 [Example 2, (E)-N-(3-cyano-4-((4-phenoxyphenyl)amino)quinolin-6-yl)-4-(dimethylamino)but-2-enamide]"
